The target in the experiment is T1, human GPR84 receptor (Homo sapiens, UniProt Q9NQS5).
T1 construct: host or cells: HEK293 cells, transient transfection
In words: Gαi biosensor BRET assay in HEK293 cells transfected with GPR84, stimulated with the GPR84 agonist ZQ-16. The conditions noted are these: 200 nmol/L ZQ-16; for inhibition at 10 µM / inhibition at 2 µM: HEK293, single concentration; for inhibition at 10 µM: concentration class F = 10 μM; for inhibition at 2 µM: concentration class A = 2 μM. The experiment is classed as cell-based. From the text:
Background—The following assays can be used for determination of GPR84 activation in living HEK293 cells. The Gαi BRET biosensor (Gagnon et al., 2018; Gales et al., 2006. Nat Struct Mol Biol. 13, 778-86; Saulieres et al., 2012. Nat Chem Biol. 8, 622-30) allows to directly monitor GPR84-mediated activation of Gαi. The Gαi biosensor consists of a Rluc8-tagged Gαi2 subunit, a GFP10-tagged Gγ2 subunit, and an untagged GB1. Agonist stimulation and GPR84 activation triggers a physical separation between the RLuc8-Gαi donor and the GFP10-Gγ2 acceptor, resulting in a decrease in BRET signal whose amplitude is correlated to ligand efficacy (Gales et al., 2006). Moreover, signaling functions of GPCRs are tightly regulated by endocytosis, the targeting of receptors to endosomes and their sorting to lysosomes or recycling to the plasma membrane. The early endosomes (EEs) trafficking assay (Namkung et al., 2016. Nat Commun. 7, 12178) uses Rluc8-tagged GPR84 and Renilla GFP (rGFP) attached to the FYVE domain from human endofin/zinc finger FYVE domain-containing protein 16, which binds phosphatidylinositol 3-phosphate in EEs. Agonist stimulation of GPR84-Rluc8 leads to trafficking of the receptor to EEs, and ensuing increase of the donor concentration relative to the rGFP-FYVE acceptor anchored in the same cellular compartment, and thus results in an increase in BRET signal.
Plasmids—The cDNA clones for human GPR84 receptor, human Gαi2, Gβ1, and Gγ2 were obtained from the cDNA Resource Center (www.cdna.org). GFP10 (F64L, S147P, S202F and H231L variant of Aequorea victoria Green Fluorescent Protein) gBlocks gene fragments (Integrated DNA Technologies, IA) and linker were inserted in frame at the N-terminus of human Gγ2. Rluc8 (A^55T, Cl24A, S130A, K136R, A^143M, M185V, M253L, and S287L variant of the Renilla reniformis luciferase) gBlocks gene fragment was inserted with linkers in frame in between residues 91 and 92 of Gαi2 or at the C-terminus of GPR84. The FYVE domain from human endofin (residues Q739 to K806) attached in frame at the C terminus of a humanized Renilla GFP (rGFP), were synthesized as gBlocks gene fragments.
Bioluminescence Resonance Energy Transfer (BRET) Measurement-HEK293 cells were transfected with GPR84-Rluc8 and rGFP-FYVE for the EEs trafficking biosensor or with GPR84, Gαi2-Rluc8, GFP10-Gγ2, and Gβ1 for the Gαi biosensor. The following day, transiently transfected cells were seeded in 96-well white clear bottom microplates coated with poly-D-lysine and left in culture for 24 hours. Cells were washed once with Tyrode's buffer (140 mmol/L NaCl, 1 mmol/L CaCl2, 2.7 mmol/L KCl, 0.49 mmol/L MgCl2, 0.37 mmol/L NaH2PO4, 5.6 mmol/L glucose, 12 mmol/L NaHCO3, and 25 mmol/L HEPES, pH 7.5) before performing assays in Tyrode's buffer. Test compounds were incubated with cells for 5 (Gai) or 15 (EEs) minutes at 37° C. before addition of 200 nmol/L of the GPR84 agonist ZQ-16 (2-(Hexylthio)-6-hydroxy-4 (3H)-pyrimidinone) for 5 minutes at room temperature (Gai) or 30 minutes at 37° C. (EEs). The Rluc8 substrate coelenterazine 400A (Prolume, Lakeside, AZ) was added at a final concentration of 5 μmol/L and BRET readings were collected using an Infinite M1000 microplate reader (Tecan, Morrisville, NC). BRET2 readings between Rluc8 and GFP10 or rGFP were collected by sequential integration of the signals detected in the 370 to 450 nm (Rluc8) and 510 to 540 nm (GFP10, rGFP) windows. The BRET signal was calculated as the ratio of light emitted by acceptor (GFP10, rGFP) over the light emitted by donor (Rluc8). The values were corrected to net BRET by subtracting the background BRET signal obtained in cells transfected with Rluc8 constructs alone. Ligand-promoted net BRET values were calculated by subtracting vehicle-induced net BRET from ligand-induced net BRET.

By inhibition is commonly meant the drop in the measured response relative to a control, in per cent. For orientation: IC50 means the concentration needed to halve the response being measured. High values mean a need for much substance, low ones inhibition by little substance.

T1 sequence (Q9NQS5 whole entry): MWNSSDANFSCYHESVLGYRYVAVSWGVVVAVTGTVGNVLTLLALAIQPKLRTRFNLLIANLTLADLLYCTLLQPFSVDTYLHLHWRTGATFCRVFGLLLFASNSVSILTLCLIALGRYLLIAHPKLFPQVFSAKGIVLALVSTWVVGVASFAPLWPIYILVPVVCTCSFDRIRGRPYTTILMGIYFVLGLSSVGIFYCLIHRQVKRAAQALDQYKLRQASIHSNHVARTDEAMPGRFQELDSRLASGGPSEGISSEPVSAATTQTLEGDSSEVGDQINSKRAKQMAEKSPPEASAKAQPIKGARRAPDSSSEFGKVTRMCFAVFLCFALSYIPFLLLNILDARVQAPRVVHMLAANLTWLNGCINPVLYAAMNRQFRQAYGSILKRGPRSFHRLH

`CC1(C)COC(Cn2cc(-c3ncc(CC#N)cc3OC3CC3)nn2)OC1` [Compound I-40] displayed an inhibition at 10 µM of 50 to 75%.

As to `CN(C)c1cc(N2CC(C)(CO)C2)ccc1-c1cn(CC2OCC3(CC3)CO2)cn1` [Compound I-41], the IC50 is ≤ 300 nM and the inhibition at 2 µM was > 75%.

For `CN(C)c1cc(N2CC3(COC3)C2)ccc1-c1cn(CC2OCC3(CC3)CO2)cn1` [Compound I-42], the inhibition at 10 µM was > 75%.

Regarding `CC1(C)COC(Cn2ncc(C#Cc3ccncc3)n2)OC1` [Compound I-43], the inhibition at 10 µM is ≤ 25%.

In the case of `CN(C)c1cc(N2CC3(COC3)C2)ccc1-c1cn(CC2OCC(C)(C)CO2)cn1` [Compound I-45, 2-(1-((5,5-dimethyl-1,3-dioxan-2-yl)methyl)-1H-imidazol-4-yl)-N,N-dimethyl-5-(2-oxa-6-azaspiro[3.3]heptan-6-yl)aniline], the IC50 fell in the range of 1000 to 3000 nM and the inhibition at 10 µM was > 75%.

For the compound `COc1ccc(C#Cc2cnn(CC3OCC(C)(C)CO3)n2)cc1` [Compound I-46], the inhibition at 10 µM was ≤ 25%.

As for `CN(C)C(=O)Cn1cnc(-c2ccc(N3CC(C)(CO)C3)cc2N(C)C)c1` [Compound I-47], the inhibition at 10 µM lay in the range of 50 to 75%.

For the compound `Cc1cc(N2CCN(C(C)c3ccccn3)CC2)ccc1-c1cn(CC2OCC3(CC3)CO2)cn1` (centres unmarked) [Compound I-48], the IC50 was ≤ 300 nM and the inhibition at 10 µM is > 75%.

Regarding `CC1(C)COC(Cn2cc(-c3ncc(C(F)(F)F)cc3OC3CC3)nn2)OC1` [Compound I-49], the inhibition at 2 µM was 50 to 75%.

Take `[2H]C([2H])([2H])N(c1cc(N2CC(C)(CO)C2)ccc1-c1cn(CC2OCC(C)(C)CO2)nn1)C([2H])([2H])[2H]` [Compound I-50]: the IC50 lay in the range of 300 to 1000 nM.

Regarding `CN(C)C(=O)Cn1cnc(-c2ncc(C#CC3CC3)cc2OC2CC2)c1` [Compound I-51], the inhibition at 10 µM was > 75%.

As to `CN(C)c1cc(N2CC(C)(CO)C2)c(F)cc1-c1cn(CC2OCC3(CC3)CO2)cn1` [Compound I-52], the IC50 is ≤ 300 nM and the inhibition at 10 µM was > 75%.

Take `C(#CC1CC1)c1cnc(-c2cncn2C[C@H]2CCCCO2)c(OC2CC2)c1` [Compound I-53]: the inhibition at 10 µM is ≤ 25%.

With `C(#CC1CC1)c1cnc(-c2cn(C[C@H]3CCCCO3)cn2)c(OC2CC2)c1` [Compound I-54], the IC50 is ≤ 300 nM and the inhibition at 2 µM was > 75%.

Regarding `[2H]C([2H])([2H])N(c1cc(N2CC(C)(CO)C2)ccc1-c1cn(CC2OCC3(CC3)CO2)nn1)C([2H])([2H])[2H]` [Compound I-55], the IC50 lay in the range of 300 to 1000 nM and the inhibition at 10 µM is > 75%.

As to `CCc1cc(N2CCN(Cc3ccccn3)CC2)ccc1-c1cn(CC2OCC3(CC3)CO2)cn1` [Compound I-56], the IC50 is ≤ 300 nM and the inhibition at 10 µM is > 75%.

In the case of `O=C(NC1CC1)c1cnc(-c2cn(CC3OCC4(CC4)CO3)nn2)c(OC2CC2)c1` [Compound I-57], the inhibition at 10 µM fell in the range of 25 to 50%.

Regarding `CC1(C)COC(Cn2cc(Cc3cc(C#CC4CC4)ccc3C(F)(F)F)nn2)OC1` [Compound I-58], the inhibition at 10 µM is > 75%.

In the case of `CN(C(=O)c1cnc(-c2cn(CC3OCC4(CC4)CO3)nn2)c(OC2CC2)c1)C1CC1` [Compound I-59, 6-(1-((5,7-dioxaspiro[2.5]octan-6-yl)methyl)-1H-1,2,3-triazol-4-yl)-5-cyclopropoxy-N-cyclopropyl-N-methylnicotinamide], the inhibition at 10 µM is ≤ 25%.

`CN(C)C(=O)c1cnc(-c2cn(CC3OCC4(CC4)CO3)nn2)c(OC2CC2)c1` [Compound I-61] displayed an inhibition at 10 µM of 25 to 50%.

Regarding `Cc1cc(N2CCN(Cc3ccccn3)CC2)ccc1-c1cn(CC(=O)N(C)C)cn1` [Compound I-62], the inhibition at 10 µM was in the range of 25 to 50%.

For the compound `O=C(O)Cn1cc(-c2ncc(C#CC3CC3)cc2OC2CC2)nn1` [Compound I-63], the inhibition at 10 µM is ≤ 25%.

In the case of `O=C(Cn1cc(-c2ncc(C#CC3CC3)cc2OC2CC2)nn1)N1CCCC1` [Compound I-64], the half-maximal inhibitory concentration (IC50) was 300 to 1000 nM and the inhibition at 10 µM was > 75%.

In turn, `O=C1OC(c2ccc(C#CC3CC3)cc2)CN1CC1CCCCO1` (centres unmarked) [Compound I-65] registered an inhibition at 10 µM of 25 to 50%.

`CNC(=O)c1cnc(-c2cn(CC3OCC4(CC4)CO3)nn2)c(OC2CC2)c1` [Compound I-66]: the inhibition at 10 µM was 50 to 75%.

Take `CNC(=O)Cn1cc(-c2ncc(C#CC3CC3)cc2OC2CC2)nn1` [Compound I-67]: the inhibition at 10 µM fell in the range of 25 to 50%.

Regarding `C(#CC1CC1)c1cnc(-c2cn(Cc3cc4ccccc4[nH]3)nn2)c(OC2CC2)c1` [Compound I-70], the inhibition at 10 µM is ≤ 25%.

Regarding `CN(C)C(=O)COc1cnc(-c2cn(CC(=O)N(C)C)nn2)c(OC2CC2)c1` [Compound I-71], the inhibition at 10 µM is ≤ 25%.

With `CN(C)C(=O)COc1cnc(-c2cn(CC3OCC4(CC4)CO3)nn2)c(OC2CC2)c1` [Compound I-72], the inhibition at 10 µM lay in the range of 25 to 50%.

`CN(C)C(=O)CNc1cnc(-c2cn(CC3OCC4(CC4)CO3)nn2)c(OC2CC2)c1` [Compound I-73]: the inhibition at 10 µM is > 75%.

In turn, `Cc1ccc(C#CC2CC2)cc1C(F)(F)c1cn(CC2CCCCO2)nn1` (centres unmarked) [Compound I-99] had an inhibition at 2 µM of 50 to 75%.

Regarding `Cc1cc(C#CCN2CC(C)(C)C2)cnc1-c1nnn(CC2OCC(C)(C)CO2)n1` [Compound I-111], the 50% inhibitory concentration (IC50) lay within 1000 to 3000 nM and the inhibition at 10 µM was > 75%.

With `CC1(C)CN(CC#Cc2cnc(-c3cn(CC4OCC5(CC5)CO4)nn3)c(CC3CC3)c2)C1` [Compound I-118], the IC50 is ≤ 300 nM and the inhibition at 2 µM was > 75%.

Consider `CC1(C)COC(Cn2cc(Cc3cc(C#CC4CC4)ccc3Cl)nn2)OC1` [Compound I-136], for which the half-maximal inhibitory concentration (IC50) lay in the range of 1000 to 3000 nM and the inhibition at 10 µM is > 75%.

Turning to `CN(C)c1cc(N2CCN(Cc3ccccn3)CC2)ccc1-c1cn(CC2OCC(C)(C)CO2)cn1` [Compound I-137], the inhibition at 10 µM was ≤ 25%.

In the case of `Cc1cc(N2CCN(Cc3ccccn3)CC2)ccc1-c1cn(CC2OCC3(CC3)CO2)cn1` [Compound I-139], the inhibition at 10 µM is > 75%.

As to `CC1(C)COC(Cn2cc(-c3ncc(C#CCN4CC(C)(CO)C4)cc3OC3CC3)nn2)OC1` [Compound I-143], the inhibition at 2 µM is > 75%.

`CC1(CO)CN(c2ccc(-c3cn(CC4OCC5(CCC5)O4)nn3)c(CC(F)(F)F)c2)C1` (centres unmarked) [Compound I-144]: the inhibition at 10 µM is > 75%.

Take `CCN(CC)c1cc(N2CC(C)(CO)C2)ccc1-c1cn(CC2OCC3(CC3)CO2)nn1` [Compound I-147]: the inhibition at 10 µM was > 75%.

Regarding `CN(c1ccc(C#CC2CC2)cc1)c1cn(CC2OCC(C)(C)CO2)nn1` [Compound I-149], the inhibition at 10 µM is ≤ 25%.

As for `CN(c1cn(CC2OCC(C)(C)CO2)nn1)c1cc(C#N)ccc1Cl` [Compound I-159], the inhibition at 10 µM was 25 to 50%.

The compound `CN(c1cccc(C#N)c1)c1cn(CC2OCC(C)(C)CO2)nn1` [Compound I-160] showed an inhibition at 10 µM of 25 to 50%.

Compound `NC(=O)c1cnc(-c2cn(CC3OCC4(CC4)CO3)nn2)c(OC2CC2)c1` [Compound I-204] yielded an inhibition at 10 µM of 50 to 75%.

Turning to `c1nc(-c2cn(CC3OCC4(CC4)CO3)nn2)c(OC2CC2)cc1-c1nnn[nH]1` [Compound I-205], the half-inhibitory concentration (IC50) is ≤ 300 nM and the inhibition at 2 µM was > 75%.
